From ChEMBL document CHEMBL4392870, “Isolation and Biological Activity of 8- Epitetrodotoxin and the Structure of a Possible Biosynthetic Shunt Product of Tetrodotoxin, Cep-226A, from the Newt Cynops ensicauda popei” (J Nat Prod, 2019)

How the values were obtained:
[1] = Inhibition of NaV in mouse Neuro2a cells assessed as suppression of ouabain/veratridine-induced reduction in cell viability measured after 20 hrs by WST8 assay
[2] = Inhibition of NaV in mouse Neuro2a cells assessed as suppression of ouabain/veratridine-induced reduction in cell viability measured after 24 hrs by WST8 assay; format: cell-based

Row | SMILES | EC50 [1] | EC50 [2] | ED50 (Rana temporaria)
1 | NC1=N[C@H](O)[C@H]2[C@H]3O[C@]4(O)O[C@@H]([C@H](O)[C@@]2(N1)[C@@H]4O)[C@]3(O)CO | 110 nM |  | 
2 | NC1=N[C@H](O)[C@H]2[C@H]3O[C@]4(O)O[C@@H](C[C@@]2(N1)[C@@H]4O)[C@]3(O)CO |  | 250 nM | 
3 | NC1=N[C@H](O)[C@H]2[C@H]3O[C@]4(O)O[C@@H]([C@@H](O)[C@@]2(N1)[C@@H]4O)[C@]3(O)CO [TETRODOTOXIN] | 1.9 nM |  | 4.1 nM
4 | NC1=N[C@H](O)[C@H]2[C@H]3O[C@]4(O)O[C@@H]([C@@H](O)[C@@]2(N1)[C@@H]4O)[C@@]3(O)CO | 33 nM |  | 96 nM
